Target: Mu-type opioid receptor (Cavia porcellus, UniProt P97266)
Test: Inhibitory activity against opioid receptor mu of guinea pig brain using [3H]DAGO radioligand

Chain of Mu-type opioid receptor (P97266 whole entry): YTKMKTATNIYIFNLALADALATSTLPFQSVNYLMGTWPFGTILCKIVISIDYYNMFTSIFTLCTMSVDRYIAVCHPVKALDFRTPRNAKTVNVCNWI

Structure (SMILES): CN1CC[C@]23CCCC[C@H]2[C@H]1Cc1ccc(O)cc13 [LEVORPHANOL]
- IC50: 0.6 nM
